We go through 10 molecules from paper PMC9762789, “Chromone-based monoamine oxidase B inhibitor with potential iron-chelating activity for the treatment of Alzheimer’s disease” (Journal of Enzyme Inhibition and Medicinal Chemistry, 2022).

Where two headings read alike, the source gives them in different places.

Broadly, the melting point is the temperature of the solid-liquid transition. Broadly, the IC50 is the midpoint of a concentration-inhibition curve. Lower therefore signals greater potency.

The target in one series is T1, MAO-B (Homo sapiens, UniProt P27338).
T1 construct: purchased Sigma-Aldrich
T1 sequence (P27338 1-520): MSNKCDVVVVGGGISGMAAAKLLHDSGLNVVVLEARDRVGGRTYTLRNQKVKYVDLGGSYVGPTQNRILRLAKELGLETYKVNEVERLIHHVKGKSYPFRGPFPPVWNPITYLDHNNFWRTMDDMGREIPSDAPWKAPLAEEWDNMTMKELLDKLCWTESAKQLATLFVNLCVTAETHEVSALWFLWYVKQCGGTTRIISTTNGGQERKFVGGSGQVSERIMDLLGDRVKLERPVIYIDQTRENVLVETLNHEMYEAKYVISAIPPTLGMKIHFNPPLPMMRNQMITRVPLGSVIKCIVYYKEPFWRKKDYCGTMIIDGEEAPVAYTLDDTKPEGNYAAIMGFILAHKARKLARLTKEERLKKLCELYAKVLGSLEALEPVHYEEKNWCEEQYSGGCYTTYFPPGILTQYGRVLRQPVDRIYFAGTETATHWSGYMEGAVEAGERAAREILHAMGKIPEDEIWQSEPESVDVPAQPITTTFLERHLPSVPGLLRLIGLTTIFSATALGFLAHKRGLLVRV
Briefly: hMAO-B inhibition assay. Format: biochemical. The note with it: for inhibition at 0.1 µM: hMAO-B, 100 nM, read-out: Inhibitory rate (%, 100 nM). As to the method: (§1) The reagents and enzymes (Human MAO-B and Human MAO-A) applied in this experiment were purchased from Sigma-Aldrich. According to the manuals, all components (substrate solution and enzyme solution) are diluted and placed aside for use. The detailed process has been mentioned in our early work[34].

Series [1] can be described thus: iron (III) affinity constants and pFe3+ by spectrophotometric titration. In kind it is physicochemical. The note with it: for Log β1 / Log β2 / Log β3: DMSO: KCl (0.1 M) = 1:1.5 (v/v); for pFe^3+: calculated from Log β values obtained in DMSO: KCl (0.1 M) = 1:1.5 (v/v).
For a further series, the target named is T2, Human MAO-A (Homo sapiens, UniProt P21397).
T2 construct: purchased Sigma-Aldrich
T2 sequence (P21397 1-527): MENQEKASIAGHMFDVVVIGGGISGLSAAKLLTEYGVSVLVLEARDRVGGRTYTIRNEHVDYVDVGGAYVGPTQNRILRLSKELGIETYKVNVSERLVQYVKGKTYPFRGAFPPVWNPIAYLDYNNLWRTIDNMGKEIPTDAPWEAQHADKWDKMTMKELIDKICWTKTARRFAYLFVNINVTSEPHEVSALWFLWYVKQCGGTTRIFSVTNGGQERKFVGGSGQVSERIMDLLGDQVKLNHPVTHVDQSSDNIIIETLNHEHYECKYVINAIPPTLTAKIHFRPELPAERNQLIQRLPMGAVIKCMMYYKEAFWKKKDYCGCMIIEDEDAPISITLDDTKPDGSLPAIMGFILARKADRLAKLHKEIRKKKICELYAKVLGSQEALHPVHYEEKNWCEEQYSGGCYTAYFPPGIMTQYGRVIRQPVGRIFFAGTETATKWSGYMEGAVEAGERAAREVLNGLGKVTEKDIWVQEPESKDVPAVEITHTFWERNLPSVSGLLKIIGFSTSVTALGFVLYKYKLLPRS
Briefly: hMAO-A inhibition assay. In kind it is biochemical. The note with it: for inhibition at 10 µM: read-out: hMAO-A inhibitory rate at 10 μM, 10 μM (highest concentration tested). As to the method:
Further, the inhibitory activity of compounds against hMAO-A isoform was tested and calculated as a selectivity index [Selectivity index (SI): IC50 (hMAO-A)/IC50 (hMAO-B)].
as §1

A short description of series [2]: pKa determination by automated spectrophotometric titration. In kind it is physicochemical. The note with it: 0.1 M KCl solution.

In turn, `Cc1c(O)c(=O)ccn1CCNC(=O)c1coc2cc(OCc3ccc(F)cc3)ccc2c1=O` [Compound 15e, 7-((4-Fluorobenzyl)oxy)-N-(2–(3-hydroxy-2-methyl-4-oxopyridin-1(4H)-yl)ethyl)-4-oxo-4H-chromene-3-carboxamide] returned a melting point of 246 to 248 °C. At MAO-B, the IC50 came to 106.4 ± 0.2 nM, the “SI: hMAO-B selectivity index = IC50 (hMAO-A)/IC50 (hMAO-B)” value (from here on “SI: hMAO-B selectivity index = IC50”) is on record as over 94 and the inhibition at 0.1 µM was 42.4 ± 2.1%. Moreover, in series [1], the “Log β1” value is 13.24, the “Log β2” value amounted to 24.65, the “Log β3” value turned out to be 34.50 and the “pFe^3+” value was 18.52. The inhibition at 10 µM at Human MAO-A was under 20%. Also, in series [2] (read-out: pKa1), the pKa worked out at 2.89. Also, the pKa in series [2] (read-out: pKa2) was 9.57.

As to `Cc1c(O)c(=O)ccn1CCNC(=O)c1coc2cc(OCc3cccc(Cl)c3)ccc2c1=O` [Compound 15f, 7-((3-Chlorobenzyl)oxy)-N-(2–(3-hydroxy-2-methyl-4-oxopyridin-1(4H)-yl)ethyl)-4-oxo-4H-chromene-3-carboxamide], the melting point lay within 230 to 232 °C. Further, at MAO-B, 129.5 ± 0.8 nM corresponded to half-maximal inhibition (IC50) and the inhibition at 0.1 µM came out at 41.2 ± 2.8%. For the same molecule, in series [1], the “Log β1” value stood at 13.79, the “Log β2” value turned out to be 25.03, the “Log β3” value is given as 33.91 and the “pFe^3+” value is recorded as 18.09. For the same molecule, the inhibition at 10 µM at Human MAO-A was under 20%. Besides, the pKa in series [2] (read-out: pKa1) was found to be 3.35. For the same molecule, in series [2] (read-out: pKa2), the pKa was determined as 9.52.

`Cc1ccc2c(=O)c(CNCCn3ccc(=O)c(O)c3C)coc2c1` [Compound 17b, 3-Hydroxy-2-methyl-1–(2-(((7-methyl-4-oxo-4H-chromen-3-yl)methyl)amino)ethyl)pyridin-4(1H)-one] gave a melting point of 251 to 253 °C. Besides, on MAO-B, the IC50 was 82.78 ± 0.7 nM, the “SI: hMAO-B selectivity index = IC50” value is reported as over 120 and the inhibition at 0.1 µM was determined as 49.5 ± 0.3%. Moreover, in series [1], the “Log β1” value is 13.58, the “Log β2” value is 25.38, the “Log β3” value was 35.34 and the “pFe^3+” value was 18.61. In addition, the inhibition at 10 µM on Human MAO-A is under 20%. Also, in series [2] (read-out: pKa1), the pKa was 2.95. For the same molecule, the pKa in series [2] (read-out: pKa2) came out at 9.82.

With `Cc1ccc2occ(CNCCn3ccc(=O)c(O)c3C)c(=O)c2c1` [Compound 17c, 3-Hydroxy-2-methyl-1–(2-(((6-methyl-4-oxo-4H-chromen-3-yl)methyl)amino)ethyl)pyridin-4(1H)-one], the melting point lay in the range of 259 to 261 °C. Also, at MAO-B, the IC50 worked out at 86.3 ± 0.7 nM, the “SI: hMAO-B selectivity index = IC50” value is over 116 and the inhibition at 0.1 µM turned out to be 44.23 ± 0.1%. Further, in series [1], the “Log β1” value amounted to 13.31, the “Log β2” value came to 25.00, the “Log β3” value was 34.07 and the “pFe^3+” value is given as 17.55. The inhibition at 10 µM on Human MAO-A is under 20%. In addition, the pKa in series [2] (read-out: pKa1) came out at 2.75. Further, the pKa in series [2] (read-out: pKa2) came out at 9.76.

As for `COc1ccc2occ(CNCCn3ccc(=O)c(O)c3C)c(=O)c2c1` [Compound 17e, 3-Hydroxy-1–(2-(((6-methoxy-4-oxo-4H-chromen-3-yl)methyl)amino)ethyl)-2-methylpyridin-4(1H)-one], the melting point is 267 to 269 °C. Further, on MAO-B, the IC50 came to 88.7 ± 5.3 nM, the “SI: hMAO-B selectivity index = IC50” value is over 112 and the inhibition at 0.1 µM was determined as 46.4 ± 1.3%. For the same molecule, in series [1], the “Log β1” value is listed as 13.32, the “Log β2” value stood at 25.08, the “Log β3” value came out at 34.89 and the “pFe^3+” value is reported as 18.12. At Human MAO-A, the inhibition at 10 µM is under 20%. Besides, in series [2] (read-out: pKa1), the pKa came to 2.76. Further, the pKa in series [2] (read-out: pKa2) was found to be 9.83.

Molecule `Cc1c(O)c(=O)ccn1CCNCc1coc2cc(OCc3ccccc3)ccc2c1=O` [Compound 17f, 1–(2-(((7-(Benzyloxy)-4-oxo-4H-chromen-3-yl)methyl)amino)ethyl)-3-hydroxy-2-methylpyridin-4(1H)-one] showed a melting point of 169 to 171 °C. At MAO-B, the IC50 worked out at 76.4 ± 3.8 nM, the “SI: hMAO-B selectivity index = IC50” value is listed as 10.4 and the inhibition at 0.1 µM was found to be 49 ± 0.6%. Moreover, in series [1], the “Log β1” value is listed as 13.20, the “Log β2” value was 24.70, the “Log β3” value was 33.77 and the “pFe^3+” value is listed as 17.45. The molecule further gave an IC50 against Human MAO-A of 795 ± 0.7 nM. Also, the pKa in series [2] (read-out: pKa1) was 2.73. In series [2] (read-out: pKa2), the pKa worked out at 9.69.

With `Cc1cccc(COc2ccc3c(=O)c(CNCCn4ccc(=O)c(O)c4C)coc3c2)c1` [Compound 17g, 3-Hydroxy-2-methyl-1–(2-(((7-((3-methylbenzyl)oxy)-4-oxo-4H-chromen-3-yl)methyl)amino)ethyl)pyridin-4(1H)-one], the melting point was 211 to 213 °C. Further, on MAO-B, the IC50 was 78 ± 4.3 nM, the “SI: hMAO-B selectivity index = IC50” value was 21.4 and the inhibition at 0.1 µM turned out to be 55.8 ± 2.7%. Besides, in series [1], the “Log β1” value is given as 13.02, the “Log β2” value came to 24.75, the “Log β3” value is recorded as 33.78 and the “pFe^3+” value is on record as 17.66. The molecule also showed an IC50 on Human MAO-A of 1666 ± 5.7 nM. Also, the pKa in series [2] (read-out: pKa1) stood at 2.68. Further, the pKa in series [2] (read-out: pKa2) came to 9.62.

Consider `Cc1c(O)c(=O)ccn1CCNCc1coc2cc(OCc3ccc(F)cc3)ccc2c1=O` [Compound 17j, 1–(2-(((7-((4-Fluorobenzyl)oxy)-4-oxo-4H-chromen-3-yl)methyl)amino)ethyl)-3-hydroxy-2-methylpyridin-4(1H)-one], for which the melting point fell in the range of 218 to 220 °C. In addition, at MAO-B, the IC50 worked out at 102 ± 3.2 nM, the “SI: hMAO-B selectivity index = IC50” value is over 99 and the inhibition at 0.1 µM worked out at 46 ± 0.7%. Moreover, in series [1], the “Log β1” value turned out to be 13.13, the “Log β2” value was found to be 24.78, the “Log β3” value turned out to be 33.73 and the “pFe^3+” value is reported as 17.89. The inhibition at 10 µM at Human MAO-A is under 20%. In addition, the pKa in series [2] (read-out: pKa1) was determined as 2.76. The pKa in series [2] (read-out: pKa2) was found to be 9.53.

Molecule `Cc1c(O)c(=O)ccn1CCNCc1coc2cc(OCc3cccc(Cl)c3)ccc2c1=O` [Compound 17k, 1–(2-(((7-((3-Chlorobenzyl)oxy)-4-oxo-4H-chromen-3-yl)methyl)amino)ethyl)-3-hydroxy-2-methylpyridin-4(1H)-one] came in with a melting point of 226 to 228 °C. On MAO-B, the IC50 was 114 ± 3.8 nM, the “SI: hMAO-B selectivity index = IC50” value is over 88 and the inhibition at 0.1 µM is 43.1 ± 2%. Moreover, in series [1], the “Log β1” value turned out to be 12.99, the “Log β2” value stood at 24.76, the “Log β3” value was found to be 33.88 and the “pFe^3+” value was 18.31. Moreover, at Human MAO-A, the inhibition at 10 µM was under 20%. For the same molecule, the pKa in series [2] (read-out: pKa1) came to 2.53. Further, the pKa in series [2] (read-out: pKa2) was 9.43.

As to `Cc1c(O)c(=O)ccn1CCNCc1coc2cc(OCc3ccc(Cl)cc3)ccc2c1=O` [Compound 17l, 1–(2-(((7-((4-Chlorobenzyl)oxy)-4-oxo-4H-chromen-3-yl)methyl)amino)ethyl)-3-hydroxy-2-methylpyridin-4(1H)-one], the melting point was 189 to 191 °C. For the same molecule, on MAO-B, the IC50 is 75.6 ± 3.1 nM, the “SI: hMAO-B selectivity index = IC50” value is recorded as 17.4 and the inhibition at 0.1 µM worked out at 61.4 ± 3.4%. Also, in series [1], the “Log β1” value was 13.02, the “Log β2” value came out at 24.99, the “Log β3” value stood at 34.39 and the “pFe^3+” value is 18.70. Moreover, the IC50 against Human MAO-A was 1310 ± 13.4 nM. In series [2] (read-out: pKa1), the pKa came out at 2.61. The pKa in series [2] (read-out: pKa2) is 9.47.
